Drawing on the supplement of paper PMC6723410, this text covers viability for 72 compounds.

One test has as its system GUMC-403. Description: viability at highest tested concentration (max response) relative to DMSO (% of DMSO control); higher = less cytotoxic. The conditions noted are these: library / dose series: MIPE library, 11-point 1:3 dilution; top concentration 23 µM; 48 h. In a few lines:
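Each figure stands for viability at the highest tested concentration compared with vehicle control. It was measured by CellTiter-Glo luminescence on a ViewLux after 48 h of exposure to 23 nL of pinned compound, with vehicle wells taken as 100% and empty wells as 0%. The cells were patient-derived GUMC-403 papilloma cells grown by conditional reprogramming, plated at 700/well in 5 μL F + Y medium in 1536-well plates.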
The compound `NC/1=N/C(=O)N(C[C@@H](CO)OC[P](O)(O)=O)/C=C1` returned a viability of 104.

The test is the same for the next values; noted with them: library / dose series: MIPE library, 11-point 1:3 dilution; top concentration 46.1 µM; 48 h.
Consider `CC(C)N(CC[C@H](c1ccccc1)c1cc(CO)ccc1O)C(C)C`, for which the viability stood at 137.
`CCOC(=O)[C@@H](N)Cc1ccc(-c2cc(O[C@H](c3ccc(Cl)cc3-n3ccc(C)n3)C(F)(F)F)nc(N)n2)cc1.O=C(O)CNC(=O)c1ccccc1` registered a viability of 117.
Consider `CCCCCCCN(CC)CCCC(O)c1ccc(NS(C)(=O)=O)cc1.CCCCCCCN(CC)CCCC(O)c1ccc(NS(C)(=O)=O)cc1.O=C(O)/C=C/C(=O)O` (configuration not stated), for which the viability was 106.
As to `COCCCOc1ccnc(C[S+]([O-])c2nc3ccccc3[n-]2)c1C` (configuration not stated), the viability was 120.
On the same count and under the same terms, in the case of `Cc1onc(-c2ccccc2)c1C(=O)N[C@@H]1C(=O)N2[C@@H]1SC(C)(C)[C@@H]2C(=O)[O-].[Na+]` it was 109; in that of `CCC(C)(C)c1ccc(CC(C)CN2C[C@@H](C)O[C@@H](C)C2)cc1` (some centres not stated), 96.2; in that of `COc1ccc([S+](=O)([O-])N(C(C)=O)c2ccccc2/C=C/c2cc[n+]([O-])cc2)cc1`, 60.2.
`Nc1c2c(nc3ccccc13)CCCC2` returned a viability of 107.
On the same count and under the same terms, in the case of `O=C(CCc1ccc(O)cc1)c1c(O)cc(O)cc1O[C@@H]1O[C@H](CO)[C@@H](O)[C@H](O)[C@H]1O` it was 98.5; in that of `OCC(O)C(O)C(O)CO` (configuration not stated), 97.1; in that of `CN(C)/[N+]([O-])=N/Oc1cc(ON[N+](=O)N2CCN(C(=O)c3cc(Cc4n[nH]c(=O)c5ccccc45)ccc3F)CC2)c([N+](=O)[O-])cc1[N+](=O)[O-]`, 108.
In the case of `CCOC(=O)C/1=C(C)/NC(=S)NC1C2=CC=CC(=C2)O` (configuration not stated), the viability stood at 118.
Take `OC[C@H]1O[C@@H](O[C@@H]2[C@@H](CO)O[C@](O)(CO)[C@H]2O)[C@H](O)[C@@H](O)[C@H]1O`: the viability worked out at 95.3.
As for `Cc1cnc(Nc2ccc(OCCN3CCCC3)cc2)nc1Nc1cccc([S+](=O)([O-])NC(C)(C)C)c1`, the viability was 141.
Turning to `CCCCc1oc2ccccc2c1C(=O)c1cc(I)c(OCCN(CC)CC)c(I)c1`, the viability worked out at 95.4.
The same measure, in the same setting: for `CC(C)(C)c1cc(C(=O)O)c(NC(=O)Nc2ccc3[nH]ncc3c2)s1` the value was 87.6; for `CCN(CC)CCOc1ccc(/C(=C(\Cl)c2ccccc2)c2ccccc2)cc1`, 114.
For the compound `O=c1cc(-c2ccc(O)c(O)c2)oc2cc(O)cc(O)c12`, the viability came to 115.
`COc1cc2c(Oc3ccc4[nH]c(C)cc4c3F)ncnc2cc1OCCCN1CCCC1` yielded a viability of 64.4.
`CC(C)(N)C(=O)N[C@H](COCc1ccccc1)C(=O)N1CCC2(CC1)CN([S+](C)(=O)[O-])c1ccccc12` gave a viability of 103.
On to `COc1ccc(C(=O)N2CCCC2=O)cc1`, for which the viability came out at 119.
Turning to `CC(=O)OCC(=O)[C@@]12\N=C(C)/O[C@@H]1C[C@H]3[C@@H]4CCC/5=C/C(=O)/C=C\[C@]5(C)[C@H]4[C@@H](O)C[C@]23C`, the viability was 112.
Turning to `CC1=C(CC/C(C)=C/CCC2=CCC(C3=CC(=O)OC3O)OC2O)C(C)(C)CCC1` (configuration not stated), the viability stood at 99.7.
On to `CC(C)CN(C[C@@H](O)[C@H](Cc1ccccc1)NC(=O)O[C@H]1CCOC1)[S+](=O)([O-])c1ccc(N)cc1`, for which the viability came to 109.
In turn, `C=C1C(=O)[C@@]23C(CC[C@@H]1[C@H]2O)[C@@]12CO[C@]3(O)[C@@H](O)[C@@H]1C(C)(C)CC[C@@H]2O` (some centres not stated) returned a viability of 119.
In the case of `COC1CCC(C(=O)c2ccc3nc4c(cc3c2)CCCO4)CC1` (configuration not stated), the viability amounted to 89.8.
The same measure, in the same setting: in the case of `CCC[S+](=O)([O-])Nc1ccc(F)c(C(=O)c2c[nH]c3ncc(Cl)cc23)c1F` it was 79.1.
`C/C(=C\c1csc(C)n1)[C@@H]1C[C@@H]2O[C@]2(C)CCC[C@H](C)[C@H](O)[C@@H](C)C(=O)C(C)(C)[C@@H](O)CC(=O)O1` showed a viability of 102.
Turning to `C[C@H](NC(=O)c1sccc1OCc1ccc(Cl)cc1)c1ccccc1`, the viability was found to be 95.3.
As for `C[C@@H]1CN[C@H]2[C@@H](C)[C@@]\3(CC[C@H]\4[C@@H]5C/C=C6/C[C@@H](O)CC[C@]6(C)[C@H]5CC4=C3C)O[C@@H]2C1`, the viability worked out at 116.
`CC(=O)OCC(=O)[C@@]12OC(C)(C)O[C@@H]1C[C@H]3[C@@H]4C[C@H](F)C/5=C/C(=O)/C=C\[C@]5(C)[C@@]4(F)[C@@H](O)C[C@]23C` gave a viability of 116.
Still for that read-out and setting: for `c1ccc(-c2nn3c(c2-c2ccnc4cc(OCCN5CCOCC5)ccc24)CCC3)nc1` the value was 148; for `CN1CCN(Cc2ccc(NC(=O)Nc3ccc(Oc4cc(NC(=O)C5CC5)ncn4)cc3)cc2C(F)(F)F)CC1`, 52.7.
Take `N#CC1(c2ccc(NC(=O)c3cccnc3NCc3ccncc3)cc2)CCCC1`: the viability came to 101.
`Cc1cnc(C(=O)O)c[n+]1[O-]` had a viability of 117.
Consider `O=C(O)CCCc1ccc(N(CCCl)CCCl)cc1`, for which the viability was 111.
Same read-out and setting: in the case of `CCc1ccc(CCOc2ccc(CC3SC(=O)NC3=O)cc2)nc1` (configuration not stated) it was 103.
On the same count and under the same terms, for `OC1=CC2=C(C(=C1)O)C(=O)\C(=C(/O2)C3=CC(=C(O)C=C3)O)O` the value was 147.
Turning to `CNC(=O)c1ccccc1Sc1ccc2c(/C=C/c3ccccn3)n[nH]c2c1`, the viability was 104.
`C=CCc1cc(OC)c(O)c(C(=O)NCCO)c1` displayed a viability of 118.
Regarding `CC1=NN(c2ccc(C)c(C)c2)C(=O)/C1=N/Nc1cccc(-c2cccc(C(=O)O)c2)c1O`, the viability stood at 101.
Still for that read-out and setting: in the case of `CCC[C@H]1C[C@H](C(=O)N[C@@H]([C@@H]2O[C@@H](SC)[C@@H](O)[C@@H](O)[C@H]2O)[C@H](C)Cl)N(C)C1` it was 118.
On the same count and under the same terms, in the case of `CCC(=O)NCC[C@@H]1CCc2ccc3c(c21)CCO3` it was 122; in that of `CCC(CC)[C@H](NC(C)=O)[C@@H]1[C@H](O)[C@@H](C(=O)O)C[C@H]1NC(=N)N`, 106; in that of `Cc1ccc(NC(=O)c2cccc(N(C)C)c2)cc1NC(=O)c1ccc(O)cc1`, 96.6.
`COc1ccc2cccc(CCNC(C)=O)c2c1` yielded a viability of 108.
`COC(=O)Nc1nc2cc(Sc3ccccc3)ccc2[nH]1` had a viability of 95.8.
Take `C#CCN[C@@H]1CCc2ccccc21.CS(=O)(=O)O`: the viability was 89.
Regarding `COc1cc(C)c(Sc2cnc(NC(=O)c3ccc(CNC(C)C(C)C)cc3)s2)cc1C(=O)N1CCN(C(C)=O)CC1` (configuration not stated), the viability turned out to be 85.7.
The compound `CC(C)C[C@@H](N)[C@H](O)C(=O)N[C@H](C(=O)N[C@H](C(=O)N[C@@H](CC(=O)O)C(=O)O)C(C)C)C(C)C` had a viability of 85.7.
On to `Clc2cccc(Cl)c2\N=C1/NCCN1`, for which the viability stood at 132.
The compound `O=[N+]([O-])c1ccc(Nc2ccccc2-c2ccccc2)c2nonc12` gave a viability of 106.
In turn, `CC(C)OC(=O)C(C)(C)Oc1ccc(C(=O)c2ccc(Cl)cc2)cc1` gave a viability of 117.
As to `Nc1cc(c(cc1S(=O)(N)=O)S(N)(=O)=O)C(/Cl)=C(/Cl)Cl`, the viability came to 105.
With `CCC\C1=C\C(=O)NC(=S)N1`, the viability was 110.
On the same count and under the same terms, in the case of `CCn1c(C(=O)N(C2CC2)C2CC2)cc2c3c(ncn3C)c(Nc3cc(C)n(C)n3)nc21` it was 118; in that of `FC1=CC=C(CN2\C=C/C=C(/C(=O)N[C@@H](COC3=CC4=C(NC(=O)N4)C=C3)C5=CC=CC=C5)C2=O)C=C1F`, 103; in that of `O=C(NOCC(O)CO)c1cc(Br)c(F)c(F)c1Nc1ccc(I)cc1F` (configuration not stated), 62.8.
With `Cc1csc(-c2nnc(Nc3ccc(Oc4ncccc4-c4ccnc(N)n4)cc3)c3ccccc23)c1`, the viability came to 101.
On the same count and under the same terms, for `C=C1/C(=C\C=C2/CCC[C@]3(C)[C@@H]([C@H](C)CCCC(C)(C)O)CC[C@@H]23)C[C@@H](O)C[C@@H]1O` the value was 145.
On the same count and under the same terms, in the case of `Cc1cc(OCCCc2c(C(=O)O)n(Cc3cccnc3)c3c(-c4c(COc5ccc(N6CCN([S+](C)(=O)[O-])CC6)cc5)nn(C)c4C)cccc23)cc(C)c1Cl` it was 105; in that of `CCc1nc(-c2cccc(C)c2)c(-c2ccnc(NC(=O)c3ccccc3)c2)s1`, 108.
Turning to `c1coc(CNc2ncnc3nc[nH]c23)c1`, the viability came to 108.
As for `CN(C)CC/C=C1/c2ccccc2COc2ccc(CC(=O)O)cc21`, the viability was determined as 100.
In turn, `CN(N=O)C(=O)N[C@H]1C(O)OC(CO)[C@@H](O)[C@@H]1O` (some centres not stated) registered a viability of 113.
Compound `CCCCCCCCCCCCCCCC(=O)O[C@@H]1[C@@H](O)[C@@H](O)[C@@H]([C@H](NC(=O)[C@@H]2C[C@@H](CCC)CN2C)[C@H](C)Cl)O[C@@H]1SC.Cl` had a viability of 116.
For the compound `CC(=O)NC[C@H]1CN(c2ccc(N3CCOCC3)c(F)c2)C(=O)O1`, the viability is 120.
Consider `CCC1=C2C=C(OC(=O)N3CCC(CC3)N4CCCCC4)C=CC2=NC\5=C1CN6C(=O)\C7=C(/C=C56)[C@@](O)(CC)C(=O)OC7`, for which the viability turned out to be 56.1.
The compound `C[C@@H]1C(=O)O[C@H]2CC34[C@H]5C[C@@H](C(C)(C)C)C36[C@@H](OC(=O)[C@@H]6O)O[C@@]4(C(=O)O5)[C@]21O` (some centres not stated) had a viability of 101.
`O=C(NNC(=O)c1ccc(CN[S+](=O)([O-])c2ccc(F)c(Cl)c2)cc1)c1ccccc1` registered a viability of 129.

Staying with this test, now noted: library / dose series: MIPE library, 11-point 1:3 dilution; top concentration 92.2 µM; 48 h.
In the case of `C[S+]([O-])c1ccc(-c2nc(-c3ccc(F)cc3)c(-c3ccncc3)[nH]2)cc1` (configuration not stated), the viability is 71.3.
